{
  "source": "patent US8802597B2",
  "about": "“Herbicidal pyrimidines” (E I du Pont de Nemours and Company, priority 2003, dated 2014)",
  "format_in_all_cases": "in vivo",
  "key": {"[1]": {"tested_on": "Italian ryegrass (Lolium multiflorum)", "assay": "Test C postemergence", "how_it_was_run": "(§1)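 We sprayed seeded pots preemergence and 2–18 cm seedlings postemergence with test chemicals in a non-phytotoxic solvent mixture including surfactant. Greenhouse plants were visually compared with untreated controls at 12 to 14 days and scored 0 (no effect) to 100 (complete control).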"}, "[2]": {"tested_on": "blackgrass (Alopecurus myosuroides)", "assay": "Test C postemergence", "how_it_was_run": "as §1"}, "[3]": {"tested_on": "canarygrass (Phalaris minor)", "assay": "Test C postemergence", "how_it_was_run": "as §1"}, "[4]": {"tested_on": "downy brome (Bromus tectorum)", "assay": "Test C postemergence", "how_it_was_run": "as §1"}, "[5]": {"tested_on": "green foxtail (Setaria viridis)", "assay": "Test C postemergence", "how_it_was_run": "as §1"}, "[6]": {"tested_on": "wheat (Triticum aestivum)", "assay": "Test C postemergence", "how_it_was_run": "as §1"}, "wild oat (Avena fatua)": {"tested_on": "wild oat (Avena fatua)", "assay": "Test C postemergence", "how_it_was_run": "as §1"}, "[7]": {"tested_on": "windgrass (Apera spica-venti)", "assay": "Test C postemergence", "how_it_was_run": "as §1"}, "[8]": {"tested_on": "winter barley (Hordeum vulgare)", "assay": "Test C postemergence", "how_it_was_run": "as §1"}, "[9]": {"tested_on": "bearded (brdd.) sprangletop (Leptochloa fusca ssp. fascicularis)", "assay": "Test E flooded paddy water application", "conditions": "Flood, 21 days, scale 0 to 100 (0 no effect, 100 complete control)", "how_it_was_run": "(§2)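 Weeds sown in sterilized Tama silt loam (2.6% organic matter), greenhouse 29.5/26.7° C, 16-h photoperiod; at 2.0–2.5-leaf stage pots flooded to 3 cm and compound added to paddy water. Visual rating vs untreated controls after 21 days, 0 (no effect) to 100 (complete control).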"}, "[10]": {"tested_on": "late watergrass (Echinochloa oryzicola)", "assay": "Test E flooded paddy water application", "conditions": "Flood, 21 days, scale 0 to 100 (0 no effect, 100 complete control)", "how_it_was_run": "as §2"}, "[11]": {"tested_on": "purple redstem (Ammannia coccinea)", "assay": "Test E flooded paddy water application", "conditions": "Flood, 21 days, scale 0 to 100 (0 no effect, 100 complete control)", "how_it_was_run": "as §2"}, "[12]": {"tested_on": "rice flatsedge (Cyperus iria)", "assay": "Test E flooded paddy water application", "conditions": "Flood, 21 days, scale 0 to 100 (0 no effect, 100 complete control)", "how_it_was_run": "as §2"}, "[13]": {"tested_on": "transplanted rice seedlings (Oryza sativa cv. ‘Japonica-M202’)", "assay": "Test E flooded paddy water application", "conditions": "Flood, 21 days, scale 0 to 100 (0 no effect, 100 complete control)", "how_it_was_run": "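Response scored visually on a 0–100 scale (100 = complete control) at 21 days against untreated pots. Treatment was into paddy water 3 cm deep over silt loam, with plants at the 2.0–2.5-leaf stage, grown under 16-h light at 29.5/26.7 °C day/night.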"}},
  "data": [
    {"compound": "Nc1nc(-c2ccc(Cl)cc2)nc(C(=O)O)c1Cl", "note": "[Compound 65, 6-amino-5-chloro-2-(4-chlorophenyl)-4-pyrimidinecarboxylic acid]", "values": [
      {"measurement": "Plant response rating (scale of 0 to 100), Ryegrass, Italian", "setting": "[1]; 16 g ai/ha", "result": 10},
      {"measurement": "Plant response rating (scale of 0 to 100), Ryegrass, Italian", "setting": "[1]; 31 g ai/ha", "result": 50},
      {"measurement": "Plant response rating (scale of 0 to 100), Ryegrass, Italian", "setting": "[1]; 62 g ai/ha", "result": 55},
      {"measurement": "pest or weed control at 125 g/ha", "setting": "[1]; Lolium multiflorum, post-emergence, 125 g ai/ha, scale 0 to 100 (0 no effect, 100 complete control), read-out: Ryegrass, Italian plant response rating", "result": 60, "unit": "%"},
      {"measurement": "Plant response rating (scale of 0 to 100), Blackgrass", "setting": "[2]; 16 g ai/ha", "result": 50},
      {"measurement": "Plant response rating (scale of 0 to 100), Blackgrass", "setting": "[2]; 31 g ai/ha", "result": 60},
      {"measurement": "Plant response rating (scale of 0 to 100), Blackgrass", "setting": "[2]; 62 g ai/ha", "result": 65},
      {"measurement": "pest or weed control at 125 g/ha", "setting": "[2]; Alopecurus myosuroides, post-emergence, 125 g ai/ha, scale 0 to 100 (0 no effect, 100 complete control), read-out: Blackgrass plant response rating", "result": 65, "unit": "%"},
      {"measurement": "Plant response rating (scale of 0 to 100), Canarygrass", "setting": "[3]; 16 g ai/ha", "result": 30},
      {"measurement": "Plant response rating (scale of 0 to 100), Canarygrass", "setting": "[3]; 31 g ai/ha", "result": 30},
      {"measurement": "Plant response rating (scale of 0 to 100), Canarygrass", "setting": "[3]; 62 g ai/ha", "result": 35},
      {"measurement": "pest or weed control at 125 g/ha", "setting": "[3]; Phalaris minor, post-emergence, 125 g ai/ha, scale 0 to 100 (0 no effect, 100 complete control), read-out: Canarygrass plant response rating", "result": 45, "unit": "%"},
      {"measurement": "Plant response rating (scale of 0 to 100), Bromegrass, Downy", "setting": "[4]; 16 g ai/ha", "result": 40},
      {"measurement": "Plant response rating (scale of 0 to 100), Bromegrass, Downy", "setting": "[4]; 31 g ai/ha", "result": 50},
      {"measurement": "Plant response rating (scale of 0 to 100), Bromegrass, Downy", "setting": "[4]; 62 g ai/ha", "result": 50},
      {"measurement": "pest or weed control at 125 g/ha", "setting": "[4]; Bromus tectorum, post-emergence, 125 g ai/ha, scale 0 to 100 (0 no effect, 100 complete control), read-out: Bromegrass, Downy plant response rating", "result": 55, "unit": "%"},
      {"measurement": "Plant response rating (scale of 0 to 100), Foxtail, Green", "setting": "[5]; 16 g ai/ha", "result": 50},
      {"measurement": "Plant response rating (scale of 0 to 100), Foxtail, Green", "setting": "[5]; 31 g ai/ha", "result": 55},
      {"measurement": "Plant response rating (scale of 0 to 100), Foxtail, Green", "setting": "[5]; 62 g ai/ha", "result": 60},
      {"measurement": "pest or weed control at 125 g/ha", "setting": "[5]; Setaria viridis, post-emergence, 125 g ai/ha, scale 0 to 100 (0 no effect, 100 complete control), read-out: Foxtail, Green plant response rating", "result": 70, "unit": "%"},
      {"measurement": "Plant response rating (scale of 0 to 100), Wheat", "setting": "[6]; 16 g ai/ha", "result": 40},
      {"measurement": "Plant response rating (scale of 0 to 100), Wheat", "setting": "[6]; 31 g ai/ha", "result": 40},
      {"measurement": "Plant response rating (scale of 0 to 100), Wheat", "setting": "[6]; 62 g ai/ha", "result": 45},
      {"measurement": "plant injury at 125 g/ha", "setting": "[6]; Triticum aestivum, post-emergence, 125 g ai/ha, scale 0 to 100 (0 no effect, 100 complete control), read-out: Wheat plant response rating", "result": 45, "unit": "%"},
      {"measurement": "Plant response rating (scale of 0 to 100), Oat, Wild", "setting": "wild oat (Avena fatua); 16 g ai/ha", "result": 5},
      {"measurement": "Plant response rating (scale of 0 to 100), Oat, Wild", "setting": "wild oat (Avena fatua); 31 g ai/ha", "result": 15},
      {"measurement": "Plant response rating (scale of 0 to 100), Oat, Wild", "setting": "wild oat (Avena fatua); 62 g ai/ha", "result": 20},
      {"measurement": "pest or weed control at 125 g/ha", "setting": "wild oat (Avena fatua); Avena fatua, post-emergence, 125 g ai/ha, scale 0 to 100 (0 no effect, 100 complete control), read-out: Oat, Wild plant response rating", "result": 40, "unit": "%"},
      {"measurement": "Plant response rating (scale of 0 to 100), Windgrass", "setting": "[7]; 16 g ai/ha", "result": 50},
      {"measurement": "Plant response rating (scale of 0 to 100), Windgrass", "setting": "[7]; 31 g ai/ha", "result": 60},
      {"measurement": "Plant response rating (scale of 0 to 100), Windgrass", "setting": "[7]; 62 g ai/ha", "result": 70},
      {"measurement": "pest or weed control at 125 g/ha", "setting": "[7]; Apera spica-venti, post-emergence, 125 g ai/ha, scale 0 to 100 (0 no effect, 100 complete control), read-out: Windgrass plant response rating", "result": 70, "unit": "%"},
      {"measurement": "Plant response rating (scale of 0 to 100), Barley", "setting": "[8]; 16 g ai/ha", "result": 40},
      {"measurement": "Plant response rating (scale of 0 to 100), Barley", "setting": "[8]; 31 g ai/ha", "result": 40},
      {"measurement": "plant injury at 62 g/ha", "setting": "[8]; Hordeum vulgare, post-emergence, 62 g ai/ha, scale 0 to 100 (0 no effect, 100 complete control), read-out: Barley plant response rating", "result": 50, "unit": "%"},
      {"measurement": "plant injury at 125 g/ha", "setting": "[8]; Hordeum vulgare, post-emergence, 125 g ai/ha, scale 0 to 100 (0 no effect, 100 complete control), read-out: Barley plant response rating", "result": 50, "unit": "%"},
      {"measurement": "Sprangletop, Brdd. plant response rating", "setting": "[9]; 32 g ai/ha", "result": 0},
      {"measurement": "Sprangletop, Brdd. plant response rating", "setting": "[9]; 64 g ai/ha", "result": 0},
      {"measurement": "Sprangletop, Brdd. plant response rating", "setting": "[9]; 125 g ai/ha", "result": 40},
      {"measurement": "Sprangletop, Brdd. plant response rating", "setting": "[9]; 250 g ai/ha", "result": 40},
      {"measurement": "Plant response rating, Sprangletop, Brdd.", "setting": "[9]; 16 g ai/ha", "result": 0},
      {"measurement": "Watergrass, Late plant response rating", "setting": "[10]; 32 g ai/ha", "result": 0},
      {"measurement": "Watergrass, Late plant response rating", "setting": "[10]; 64 g ai/ha", "result": 0},
      {"measurement": "Watergrass, Late plant response rating", "setting": "[10]; 125 g ai/ha", "result": 0},
      {"measurement": "Watergrass, Late plant response rating", "setting": "[10]; 250 g ai/ha", "result": 25},
      {"measurement": "Plant response rating, Watergrass, Late", "setting": "[10]; 16 g ai/ha", "result": 0},
      {"measurement": "Redstem plant response rating", "setting": "[11]; 32 g ai/ha", "result": 30},
      {"measurement": "Redstem plant response rating", "setting": "[11]; 64 g ai/ha", "result": 30},
      {"measurement": "Redstem plant response rating", "setting": "[11]; 125 g ai/ha", "result": 50},
      {"measurement": "Redstem plant response rating", "setting": "[11]; 250 g ai/ha", "result": 60},
      {"measurement": "Plant response rating, Redstem", "setting": "[11]; 16 g ai/ha", "result": 0},
      {"measurement": "Flatsedge, Rice plant response rating", "setting": "[12]; 32 g ai/ha", "result": 80},
      {"measurement": "Flatsedge, Rice plant response rating", "setting": "[12]; 64 g ai/ha", "result": 100},
      {"measurement": "Flatsedge, Rice plant response rating", "setting": "[12]; 125 g ai/ha", "result": 100},
      {"measurement": "Flatsedge, Rice plant response rating", "setting": "[12]; 250 g ai/ha", "result": 100},
      {"measurement": "Plant response rating, Flatsedge, Rice", "setting": "[12]; 16 g ai/ha", "result": 0},
      {"measurement": "Rice, Transplanted plant response rating", "setting": "[13]; 32 g ai/ha", "result": 0},
      {"measurement": "Rice, Transplanted plant response rating", "setting": "[13]; 64 g ai/ha", "result": 0},
      {"measurement": "Rice, Transplanted plant response rating", "setting": "[13]; 125 g ai/ha", "result": 0},
      {"measurement": "Rice, Transplanted plant response rating", "setting": "[13]; 250 g ai/ha", "result": 0},
      {"measurement": "Plant response rating, Rice, Transplanted", "setting": "[13]; 16 g ai/ha", "result": 0}
    ]}
  ]
}
